PMC10584170, “Machine learning-based phenotypic imaging to characterise the targetable biology of Plasmodium falciparum male gametocytes for the development of transmission-blocking antimalarials” (PLOS Pathogens, 2023)
Read-outs that look alike come from different tables or passages of the source.

Legend:
[1] = system: P. falciparum male gametocytes; assay: P. falciparum Dual Gamete Formation Assay (PfDGFA), male readout (exflagellation); assay type: cell-based, Plasmodium falciparum NF54; settings: for Selectivity Ratio M: HepG2 Tox50 versus male IC50; for inhibition at 2 µM: PfDGFA at 2µM, 24h preincubation with gametocytes; for HitlevelM: number of replicates with >50% inhibition in the male readout
In short: (§1)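 Male and female gamete formation were quantified by microscopy image analysis following 24 h incubation of mature NF54 gametocytes with compound and activation at 28°C with xanthurenic acid.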

[2] = system: P. falciparum female gametocytes; assay: P. falciparum Dual Gamete Formation Assay (PfDGFA), female readout (Pfs25-positive female gametes); assay type: cell-based, Plasmodium falciparum NF54; settings: for Selectivity ratio F: HepG2 Tox50 versus female IC50; for inhibition at 2 µM: PfDGFA at 2µM, 24h preincubation with gametocytes; for HitlevelF: number of replicates with >50% inhibition in the female readout
In short: as §1

[3] = system: P. falciparum female gametocytes; assay: P. falciparum Female Gametocyte Activation Assay (PfFGAA); assay type: cell-based, Plasmodium falciparum; settings: Mean TOX HepG2 over FGAA IC50; GREEN = >10-fold; RED = <10-fold
Description: Fig 1 The activity of TCAMS compound identified in the Pf DGFA screen. (A) 85 molecules were confirmed active in the Pf DGFA. 58 were previously identified in one or more transmission-blocking screens. […] No molecule was identified with >4.7-fold greater activity against female gametocytes. Abbreviations (IC50 = concentration giving 50% inhibition, PbODA = P. berghei Ookinete Development Assay, PfDGFA = P. falciparum Dual Gamete Formation Assay, PfFGAA = P. falciparum Female Gametocyte Activation Assay, PfGCT = P. falciparum Gametocyte Viability ATP Assay).

[4] = system: P. falciparum female gametocytes; set-up: method as in Miguel-Blanco et al 2017; settings: ref Miguel-Blanco et al 2017; read-out: Pf female gametogenesis FGAA IC50; cited from earlier work
HepG2 cells [5] = settings: cited from earlier work
HepG2 cells [6] = assay: HepG2 cytotoxicity counter-screen; settings: for Mean TOX: mean of the HepG2 TOX50 values; for Tox50: cytotoxic activity against HepG2 cells
[7] = this study, read-out: Pf DGFA IC50 MALE
[8] = this study, read-out: Pf DGFA IC50 FEM
[9] = 2µM, 24h preincubation with gametocytes prior to induction of gametogenesis, average of replicates
[10] = 2µM, 24h preincubation with gametocytes prior to induction of gametogenesis, replicate R1
[11] = 2µM, 24h preincubation with gametocytes prior to induction of gametogenesis, replicate R3
[12] = 2µM, 24h preincubation with gametocytes prior to induction of gametogenesis, replicate R4

SMILES: c1ccc(-c2nc(Nc3nc4ccccc4[nH]3)[nH]c2-c2ccccc2)cc1 [TC56]
- Cytotox ratio Pf Male [1]: 14.3
- IC50 [1, 7]: 950 nM
- Cytotox ratio Pf Female [2]: 13.3
- IC50 [2, 8]: 1020 nM
- Cytotox ratio Pf FGAA [3]: 23.4
- IC50 [4]: 580 nM
- FGAA TOX50 HepG2 (HepG2 cells [5]): 10.98 µM
- Mean TOX (HepG2 cells [6]): 13.60 µM

SMILES: COc1cccc(C23NC(=Nc4nc5ccccc5[nH]4)NC2(c2cccc(OC)c2)NC(=Nc2nc4ccccc4[nH]2)N3)c1 (centres unmarked) [TC54]
- Cytotox ratio Pf Male [1]: 19.8
- IC50 [1, 7]: 1850 nM
- Cytotox ratio Pf Female [2]: 28.1
- IC50 [2, 8]: 1300 nM
- Cytotox ratio Pf FGAA [3]: 406.2
- IC50 [4]: 90 nM
- FGAA TOX50 HepG2 (HepG2 cells [5]): 40.74 µM
- Mean TOX (HepG2 cells [6]): 36.56 µM

SMILES: CC(C)(CN)c1nc(-c2ccc(Cl)c(O)c2)c(-c2ccncc2)[nH]1.Cl [TC61]
- IC50 [1, 7]: 910 nM
- IC50 [2, 8]: 270 nM
- IC50 [4]: 940 nM
- FGAA TOX50 HepG2 (HepG2 cells [5]): 2.16 µM
- ODA TOX50 HepG2 (HepG2 cells [5]): 1.66 µM
- Mean TOX (HepG2 cells [6]): 7.15 µM

SMILES: O=C1Nc2ccccc2C1=NNC(=S)N1CCOCC1 [TC50]
- Cytotox ratio Pf Male [1]: 22.9
- IC50 [1, 7]: 2020 nM
- Cytotox ratio Pf Female [2]: 26.0
- IC50 [2, 8]: 1780 nM
- Cytotox ratio Pf FGAA [3]: 192.9
- IC50 [4]: 240 nM
- DGFA Tox50 HepG2 (HepG2 cells [6]; HepG2 value reported with the DGFA screen): 46.3 µM
- Mean TOX (HepG2 cells [6]): 46.30 µM

SMILES: Cc1ccc(-n2c(Sc3ncnc4sccc34)nnc2N2CCCC2)cc1 [TCMDC-125247]
- Selectivity Ratio M [1]: 192.28
- inhibition at 2 µM ([1]; Plasmodium falciparum, average of replicates, read-out: Average inhibition male (%)): 74.6%
- inhibition at 2 µM ([1]; Plasmodium falciparum, replicate R1, read-out: % inhibition male (individual replicates) R1): 86.9%
- inhibition at 2 µM ([1]; Plasmodium falciparum, replicate R2, read-out: % inhibition male (individual replicates) R2): 67.1%
- inhibition at 2 µM ([1]; Plasmodium falciparum, replicate R3, read-out: % inhibition male (individual replicates) R3): 80.2%
- inhibition at 2 µM ([1]; Plasmodium falciparum, replicate R4, read-out: % inhibition male (individual replicates) R4): 64.2%
- IC50 ([1]; Plasmodium falciparum, PfDGFA, 24 h incubation with gametocytes before induction, exflagellation readout, read-out: Male IC50): 380 nM
- HitlevelM ([1]; 2µM): 4
- Selectivity ratio F [2]: 296.87
- inhibition at 2 µM ([2]; Plasmodium falciparum, average of replicates, read-out: Average inhibition female (%)): 63.5%
- inhibition at 2 µM ([2]; Plasmodium falciparum, replicate R1, read-out: % inhibition female (individual replicates) R1): 56.4%
- inhibition at 2 µM ([2]; Plasmodium falciparum, replicate R2, read-out: % inhibition female (individual replicates) R2): 85.8%
- inhibition at 2 µM ([2]; Plasmodium falciparum, replicate R3, read-out: % inhibition female (individual replicates) R3): 26.4%
- inhibition at 2 µM ([2]; Plasmodium falciparum, replicate R4, read-out: % inhibition female (individual replicates) R4): 85.4%
- IC50 ([2]; Plasmodium falciparum, PfDGFA, 24 h incubation with gametocytes before induction, female gamete readout, read-out: Female IC50): 250 nM
- HitlevelF ([2]; 2µM): 3
- Tox50 (HepG2 cells [6]): 73.14 µM

SMILES: CCc1c(CCNCCCC(C)CCNCCc2ccc(OC)c(OC)c2CC)ccc(OC)c1OC.Cl (centres unmarked) [TCMDC-132065]
- Average inhibition male (%) [1, 9]: 50.4%
- % inhibition male (individual replicates) R1 [1, 10]: 69.1%
- % inhibition male (individual replicates) R3 [1, 11]: 65.3%
- % inhibition male (individual replicates) R4 [1, 12]: 65.1%
- HitlevelM ([1]; 2µM, 24h preincubation): 3
- Selectivity Ratio M [1]: 2.01
- IC50 ([1]; PfDGFA, 24 h incubation with gametocytes before induction, exflagellation readout, read-out: Male IC50): 1950 nM
- Average inhibition female (%) [2, 9]: 11.1%
- % inhibition female (individual replicates) R1 [2, 10]: 14.0%
- % inhibition female (individual replicates) R3 [2, 11]: -5.8%
- % inhibition female (individual replicates) R4 [2, 12]: 27.9%
- HitlevelF ([2]; 2µM, 24h preincubation): 0
- Selectivity ratio F [2]: 0.73
- IC50 ([2]; PfDGFA, 24 h incubation with gametocytes before induction, female gamete readout, read-out: Female IC50): 5380 nM
- Tox50 (HepG2 cells [6]): 3.92 µM
